Test results: patent US10471025B2, “Compositions for use in treating parkinson's disease and related disorders” (Technophage, Investigação E Desenvolvimento Em …, priority 2015, dated 2019)
Structures can show the parent of a compound that is named as a salt. Where two headings read alike, the source gives them in different places.

Experiments:
[1] = tested on: 6-OHDA treated zebrafish larvae; test: Freezing (duration of freezing periods, light/dark stimulus) in 6-OHDA zebrafish larvae; type: in vivo; settings: tapentadol 48.5, stavudine 50, nabumetone 0.91 μM; L-Dopa treatment
Procedure: In the zebrafish model, the locomotor impairment was measured and related with bradykinesia in patients. Tests included evaluating ‘freezing_ in response to a light/dark stimulus. 6-OHDA induced larvae had fewer freezing episodes but spent longer periods in the frozen state. In previous studies, the duration of freezing episodes has been analyzed in PD patients. […] Nonetheless, it is an inhibitor of the neuronal dopamine transporter and since 6-OHDA needs DAT to enter the neuron and induce the disease, methylphenidate may be a false positive.
As FIGS. 9B-9C show, freezing recovery was tested using 7 candidate molecules at optimal concentrations, in an exemplary experiment with n=8 fish, and methylphenidate and amantadine at 25 ? M.

[2] = tested on: 6-OHDA treated zebrafish larvae; test: LD50 / lethality in the disease context of the zebrafish model
[3] = storage below 25 éC; cited from earlier work
[4] = IV, rats; cited from earlier work
[5] = cited from earlier work; for Bioavailability: 86 mg
[6] = cited from earlier work
rat = settings: cited from earlier work
[7] = tested on: 6-OHDA treated zebrafish larvae; test: Locomotor behavior rescue (total distance moved, number of jumps) in 6-OHDA zebrafish PD model; type: in vivo
Source text: To model Parkinson ̆s disease (PD), a neurotoxin 6-OHDA (6-hyroxydopamine) based method was used in zebrafish and in mice. In this model, 6-OHDA-lesions induce motor manifestations in zebrafish and in mice, such as reduced locomotor ability, and the loss of dopaminergic neurons. Based on the 6-OHDA PD zebrafish model, compounds from a small molecules library were screened for rescue of the parkinsonian phenotype (Example 1, see below).
The screen was based on both the recovery of impaired locomotor behavior and dopaminergic neuronal loss.
Values were normalized for the mean of disease state in each experiment (disease=1). Each plot contains data from 3 independent experiments with a total of 24 larvae. As a control, zebrafish were treated with only the vehicle, ascorbic acid.
For these experiments, Tubingen (TU) wild-type zebrafish, a specific strain of wild-type zebrafish, were used.

rabbit = settings: oral administration; cited from earlier work
[8] = tested on: 6-OHDA treated zebrafish larvae; test: Co-administration with L-Dopa, total distance 6-OHDA larvae move; type: in vivo; settings: hydrochloride; for Effect of co-administration with L-Dopa on locomotor recovery: total distance, L-Dopa 250 or 125 μM
[9] = after a high-fat, high-calorie breakfast

## CC[C@@H](c1cccc(O)c1)[C@@H](C)CN(C)C [tapentadol, tapentadol hydrochloride]
[1]
  Duration of freezing periods, recovery vs 6-OHDA treated larvae: not recovered
[2]; 6-OHDA disease-induced zebrafish larvae
  LD50: 8079 | M
[2]; 6-OHDA zebrafish larvae
  LD50: 8,079 μM
[3]
  Re-test period: 30 months
[4]
  Dose with suspected proconvulsion effect: 6 mg/kg
[5]; 100 mg radiolabelled oral dose
  Conjugated form among related compounds excreted in the urine: 69%
  Drug recovered in 5 days: 99.9%
  Excreted via urine: 99%
  Exposure to the conjugates, of the total: approximately 64%
  Other forms of metabolites among related compounds excreted in the urine: 27%
  Parent drug among related compounds excreted in the urine: 3%
  Total dose excreted within 24 hours: 95%
  Total drug excreted in the feces: Approximately 1%
[5]; ER
  Cmax: 22.5 ng/mL
[5]; IR
  Cmax: 64.2 ng/mL
  Tmax: 1.5 h
[5]; [9]
  Increase of AUC with food: 25%
  Increase of Cmax with food: 16%
[5]; after oral administration
  Elimination half-life: 4 h
[5]; by CY P2C9 and CY P2C19
  Metabolized to N-desmethyl tapentadol: 13%
[5]; by CY P2D6
  Metabolized to hydroxy tapentadol: 2%
[5]; extended release (ER)
  Bioavailability: 32%
[5]; geriatric patients
  Lower mean Cmax in elderly vs young adult subjects: 16%
[5]; humans
  Parent compound metabolized: about 97%
[5]; immediate release (IR)
  Bioavailability: 32%
[5]; in vivo
  Drug excreted in urine as unchanged drug: 3%
  Excretion via the kidneys (tapentadol and its metabolites): 99%
  Total clearance: 1530 ± 177 mL/min
[5]; intravenous administration, hydrochloride
  Volume of distribution (Vz): 540 ± 98 L
[5]; mild hepatic impairment (Child-Pugh Score 5 to 6)
  AUC ratio vs normal hepatic function: 1.7
[5]; mild hepatic impairment
  Cmax ratio vs normal hepatic function: 1.4
  t1/2 ratio vs normal hepatic function: 1.2
[5]; moderate hepatic impairment (Child-Pugh Score 7 to 9)
  AUC ratio vs normal hepatic function: 4.2
[5]; moderate hepatic impairment
  Cmax ratio vs normal hepatic function: 2.5
  t1/2 ratio vs normal hepatic function: 1.4
[5]; multiple (every 6 hour) dose study, 75 to 175 mg tapentadol
  Mean accumulation factor: 1.6
[5]; oral
  Time of maximum serum concentrations after dosing: around 1.25 hours
[5]; single-dose administration (fasting)
  Mean absolute bioavailability: approximately 32%
[5]; urine
  Dose excreted as O-glucuronide: 55%
  Dose excreted as sulfate of tapentadol: 15%
[6]; all species tested including humans
  Plasma protein binding: 15-20%
[6]; plasma
  Plasma protein binding: approximately 20%
rat; intravenous administration, rats
  LD50: 45 mg/kg
rat; oral administration, rat
  LD50: 980 mg/kg
[7]; 6-OHDA zebrafish larvae
  Therapeutic window: 20 to 113 µM
[7]; 7 candidate molecules, 3 independent experiments
  Locomotor behavior rescue (total distance moved, number of jumps), confirmation of screen: strong candidates
[7]; behavioral experiments and TH+ cell counts
  Optimal concentration: 48.5 µM
[7]; tapentadol 48.5, stavudine 50, nabumetone 0.456 and 0.91 μM, n=8 fish
  Total distance travelled, difference between treated larvae and disease control: ~200 mm
[7]; zebrafish, in vivo
  Number of jumps: concentration validated as recovering the 6-OHDA induced behavior: 56.25 µM
rabbit
  LD50: 3,200 mg/kg
[8]; co-administration with L-Dopa 250 vs 125, listed as Tapentadol HCl
  Tapentadol w L-Dopa: effectiveness with L-Dopa 250 relative to 125: less and equally
[8]; listed as Tapentadol
  Effect of co-administration with L-Dopa on locomotor recovery: not affected
[8]; listed as tapentadol hydrochloride
  Effect of co-administration with L-Dopa on locomotor recovery: the same or improved
